Measured values as given in patent US9078444B2, “Isothiazoline derivatives as insecticidal compounds” (Syngenta Participations AG, priority 2011, dated 2015).

Key:
Assay type in all cases: in vivo
[1] = tested on: Diabrotica balteata; assay: Diabrotica balteata (corn root worm) artificial diet test; conditions: 120 h, 200 ppm (concentration in well 18 ppm), L2 larvae, larval mortality and growth regulation after 5 days
Protocol: Diabrotica balteata (Corn Root Worm): A 24-well microtiter plate (MTP) with artificial diet was treated with test solutions at an application rate of 200 ppm (concentration in well 18 ppm) by pipetting. After drying, the MTPs were infested with L2 larvae (6-10 per well). After an incubation period of 5 days, samples were checked for larval mortality and growth regulation.

[2] = tested on: Heliothis virescens; assay: Heliothis virescens (tobacco budworm) egg test on artificial diet; conditions: 96 h, 200 ppm (concentration in well 18 ppm), eggs on artificial diet, egg mortality, larval mortality, growth regulation after 4 days
Protocol: Heliothis virescens (Tobacco Budworm): Eggs (0-24 h old) were placed in 24-well microtiter plate on artificial diet and treated with test solutions at an application rate of 200 ppm (concentration in well 18 ppm) by pipetting. After an incubation period of 4 days, samples were checked for egg mortality, larval mortality, and growth regulation.

[3] = tested on: Tetranychus urticae; assay: Tetranychus urticae (two-spotted spider mite) bean leaf disc test; conditions: foliar, 192 h, 200 ppm sprayed on bean leaf discs, mixed ages, egg, larval and adult mortality 8 days later
Description: Tetranychus urticae (Two-Spotted Spider Mite): Bean leaf discs on agar in 24-well microtiter plates were sprayed with test solutions at an application rate of 200 ppm. After drying, the leaf discs are infested with mite populations of mixed ages. 8 days later, discs are checked for egg mortality, larval mortality, and adult mortality.

[4] = tested on: Thrips tabaci; assay: Thrips tabaci (onion thrips) sunflower leaf disc test; conditions: foliar, 168 h, 200 ppm sprayed on sunflower leaf discs, mixed ages, mortality after 7 days
Protocol: Thrips tabaci (Onion Thrips): Sunflower leaf discs were placed on agar in a 24-well microtiter plate and sprayed with test solutions at an application rate of 200 ppm. After drying, the leaf discs were infested with a thrips population of mixed ages. After an incubation period of 7 days, samples were checked for mortality.

[5] = tested on: Spodoptera littoralis; assay: Spodoptera littoralis (Egyptian cotton leafworm) cotton leaf disc test; conditions: foliar, 72 h, 200 ppm sprayed on cotton leaf discs, mortality, feeding behavior, growth regulation 3 days after treatment
Protocol: Spodoptera littoralis (Egyptian Cotton Leafworm): Cotton leaf discs were placed on agar in a 24-well microtiter plate and sprayed with test solutions at an application rate of 200 ppm. After drying, the leaf discs were infested with […]. The samples were checked for mortality, feeding behavior, and growth regulation 3 days after treatment (DAT).

[6] = tested on: Plutella xylostella; assay: Plutella xylostella (diamond back moth) artificial diet test; conditions: 144 h, 200 ppm (concentration in well 18 ppm), L2 larvae, larval mortality and growth regulation after 6 days
Protocol: Plutella xylostella (Diamond Back Moth): 24-well microtiter plate (MTP) with artificial diet was treated with test solutions at an application rate of 200 ppm (concentration in well 18 ppm) by pipetting. After drying, the MTPs were infested with L2 larvae (7-12 per well). After an incubation period of 6 days, samples were checked for larval mortality and growth regulation.

Measured: pest or weed control at 200 ppm

Cc1cc(C2=NSC(c3cc(Cl)cc(Cl)c3)(C(F)(F)F)C2)ccc1C(=O)NCC(F)(F)F (stereo not shown) [Compound A03]
≥ 80%: all assays above

CCNC(=O)c1ccc(C2=NSC(c3cc(Cl)cc(Cl)c3)(C(F)(F)F)C2)cc1C (stereo not shown) [Compound A04]
≥ 80%: all assays above

CCCCNC(=O)c1ccc(C2=NSC(c3cc(Cl)cc(Cl)c3)(C(F)(F)F)C2)cc1C (stereo not shown) [Compound A05]
≥ 80%: all assays above

COCC(C)NC(=O)c1ccc(C2=NSC(c3cc(Cl)cc(Cl)c3)(C(F)(F)F)C2)cc1C (stereo not shown) [Compound A06]
≥ 80%: all assays above

Cc1cc(C2=NSC(c3cc(Cl)cc(Cl)c3)(C(F)(F)F)C2)ccc1C(=O)NCCC(F)(F)F (stereo not shown) [Compound A07]
≥ 80%: all assays above

CCC(C)NC(=O)c1ccc(C2=NSC(c3cc(Cl)cc(Cl)c3)(C(F)(F)F)C2)cc1C (stereo not shown) [Compound A08]
≥ 80%: all assays above

Cc1cc(C2=NSC(c3cc(Cl)cc(Cl)c3)(C(F)(F)F)C2)ccc1C(=O)NCC1CCCO1 (stereo not shown) [Compound A09]
≥ 80%: all assays above

Cc1cc(C2=NSC(c3cc(Cl)cc(Cl)c3)(C(F)(F)F)C2)ccc1C(=O)NCc1ccccc1 (stereo not shown) [Compound A10]
≥ 80%: all assays above

Cc1cc(C2=NSC(c3cc(Cl)cc(Cl)c3)(C(F)(F)F)C2)ccc1C(=O)NCc1ccccc1F (stereo not shown) [Compound A11]
≥ 80%: all assays above

COc1ccc(CNC(=O)c2ccc(C3=NSC(c4cc(Cl)cc(Cl)c4)(C(F)(F)F)C3)cc2C)cc1 (stereo not shown) [Compound A13]
≥ 80%: all assays above

Cc1cc(C2=NSC(c3cc(Cl)cc(Cl)c3)(C(F)(F)F)C2)ccc1C(=O)NCc1ccc(Cl)nc1 (stereo not shown) [Compound A14]
≥ 80%: all assays above

Cc1cc(C2=NSC(c3cc(Cl)cc(Cl)c3)(C(F)(F)F)C2)ccc1C(=O)Nc1cccc(F)c1 (stereo not shown) [Compound A15]
≥ 80%: all assays above

CSCC(C)(C)NC(=O)c1ccc(C2=NSC(c3cc(Cl)cc(Cl)c3)(C(F)(F)F)C2)cc1C (stereo not shown) [Compound A20]
not listed: [4]
≥ 80%: all other assays above

Cc1cc(C2=NSC(c3cc(Cl)cc(Cl)c3)(C(F)(F)F)C2)ccc1C(=O)NC1CCSC1=O (stereo not shown) [Compound A37]
not listed: [4]
≥ 80%: all other assays above

Cc1cc(C2=NSC(c3cc(Cl)cc(Cl)c3)(C(F)(F)F)C2)ccc1C(=O)Nc1cc[n+]([O-])cc1 (stereo not shown) [Compound A41]
≥ 80%: [2] | [5] | [6]

Cc1cc(C2=NSC(c3cc(Cl)cc(Cl)c3)(C(F)(F)F)C2)ccc1C(=O)NC1=NCCS1 (stereo not shown) [Compound A44]
≥ 80%: [1] | [2] | [5] | [6]

Cc1cc(C)nc(NC(=O)c2ccc(C3=NSC(c4cc(Cl)cc(Cl)c4)(C(F)(F)F)C3)cc2C)n1 (stereo not shown) [Compound A47]
≥ 80%: [5]

CCN(CC)C(=O)c1cccc(NC(=O)c2ccc(C3=NSC(c4cc(Cl)cc(Cl)c4)(C(F)(F)F)C3)cc2C)n1 (stereo not shown) [Compound A49]
not listed: [4]
≥ 80%: all other assays above

Cc1cc(C2=NSC(c3cc(Cl)cc(Cl)c3)(C(F)(F)F)C2)ccc1C(=O)Nc1ccccn1 (stereo not shown) [Compound A56]
not listed: [3]
≥ 80%: all other assays above

Cc1cc(C2=NSC(c3cc(Cl)cc(Cl)c3)(C(F)(F)F)C2)ccc1C(=O)NCc1ccc(C(F)(F)F)cc1 (stereo not shown) [Compound A57]
not listed: [4]
≥ 80%: all other assays above

Cc1cc(C2=NSC(c3cc(Cl)cc(Cl)c3)(C(F)(F)F)C2)ccc1C(=O)Nc1ccc(C(F)(F)F)cc1 (stereo not shown) [Compound A58]
not listed: [3]
≥ 80%: all other assays above

Cc1ccc(NC(=O)c2ccc(C3=NSC(c4cc(Cl)cc(Cl)c4)(C(F)(F)F)C3)cc2C)cc1 (stereo not shown) [Compound A64]
not listed: [3]
≥ 80%: all other assays above
